Measurements as given in patent publication US5610154A, “Bicyclic carboxamides” (John Wyeth & Brother, Ltd., priority 1994, dated 1997).

target: T1, 5-HT1A receptor (Rattus norvegicus, UniProt P19327); experiment: 5-HT1A receptor binding activity in rat hippocampal membrane homogenate (method of B. S. Alexander and M. D. Wood)
T1 construct: rat hippocampal membrane homogenate; from tissue; host or cells: rat hippocampus, membrane homogenate
T1 sequence (P19327 1-422): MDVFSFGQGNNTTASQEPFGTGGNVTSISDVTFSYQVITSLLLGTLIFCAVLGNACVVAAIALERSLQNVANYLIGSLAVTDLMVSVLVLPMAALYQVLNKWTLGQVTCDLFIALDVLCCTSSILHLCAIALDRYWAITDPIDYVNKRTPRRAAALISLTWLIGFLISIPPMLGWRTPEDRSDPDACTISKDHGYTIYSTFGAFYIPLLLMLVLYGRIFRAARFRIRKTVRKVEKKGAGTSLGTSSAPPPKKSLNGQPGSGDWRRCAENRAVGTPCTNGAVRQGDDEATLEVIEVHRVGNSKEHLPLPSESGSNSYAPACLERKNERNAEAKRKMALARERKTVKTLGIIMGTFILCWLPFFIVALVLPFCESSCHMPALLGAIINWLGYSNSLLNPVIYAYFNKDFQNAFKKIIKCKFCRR
Description: The compounds of the invention are tested for 5-HT1A receptor binding activity in rat hippocampal membrane homogenate by the method of B. S. Alexander and M. D. Wood, J. Pharm. Pharmacol., 1988, 40, 888-891.

First: COc1ccccc1N1CCN(CCC(C(=O)N2CC3CCC(CC3)C2)c2ccccc2)CC1 (centres unmarked) [Example 15]
Second: O=C(C(CCN1CCN(c2cccc3[nH]ccc23)CC1)c1ccccc1)N1CC2CCC(CC2)C1 (centres unmarked) [Example 14, 1-(3-Aza-bicyclo[3.2.2]non-3-yl)-4-[4-(1H-indol-4-yl)-piperazin-1-yl]-2-phenylbutan-1-one]
The IC50 of the first is 3.4-fold lower: 0.58 nM for the first, 1.96 nM for the second. The first is the more potent here.

First: O=C(C(CCN1CCN(c2ncccc2C(F)(F)F)CC1)c1ccccc1)N1C2CCCC1CC2 (centres unmarked) [Example 10]
Second: O=C(C(CCN1CCN(c2ccccn2)CC1)c1ccccc1)N1C2CCCC1CC2 (centres unmarked) [Example 8, 1-(8-Aza-bicyclo[3.2.1]oct-8-yl)-2-phenyl-4-[4-(pyridin-2-yl)-piperazin-1-yl]-butan-1-one]
The IC50 of the first is 5.1-fold higher: 17.9 nM for the first, 3.5 nM for the second.

`O=C(C(CCN1CCN(c2cccc3[nH]ccc23)CC1)c1ccccc1)N1C2CCCC1CC2` (centres unmarked) [Example 5, 1-(8-Aza-bicyclo[3.2.1]oct-8-yl)-4-[4-(1H-indol-4-yl)-piperazin-1-yl]-2-phenyl-butan-1-one] and `COc1ccccc1N1CCN(CCC(C(=O)N2C3CCCC2CC3)c2ccccc2)CC1` (centres unmarked) [Example 1, 1-(8-Aza-bicyclo[3.2.1]oct-8-yl)-4-[4-(2-methoxy-phenyl)-piperazin-1-yl]-2-phenyl-butan-1-one] are within 1.5-fold of each other in IC50: 3.73 nM for the first, 3.3 nM for the second.

Compared with `COc1ccccc1N1CCN(CCC(C(=O)N2CC3CC=CCC3C2)c2ccccc2)CC1` (centres unmarked) [Example 16, 1-(1,3,3a,4,7,7a-Hexahydroisoindol-2-yl)-4-[4-(2-methoxyphenyl)piperazin-1-yl]-2-phenylbutan-1-one], `COc1ccc(F)cc1N1CCN(CCC(C(=O)N2C3CCCC2CC3)c2ccccc2)CC1` (centres unmarked) [Example 2, 1-(8-Aza-bicyclo[3.2.1]oct-8-yl)-4-[4-(5-fluoro-2-methoxy-phenyl)-piperazin-1-yl]-2-phenyl-butan-1-one] is 3-fold lower in IC50: 4.46 nM for the first, 1.48 nM for the second. The second is the more potent here.
